Source: PubChem BioAssay (NCI)
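How tested: cells in 96-well plates exposed to compound for 48 hours at five concentrations. At the TGI there is no net growth.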

Tested on: SN12K1 renal
Assay: growth of human tumour cells (NCI), 48 h

Structure (SMILES)	TGI [µM]
CC1=CCCC2C1(C)CCC(C)C2(C)Cc1cc(O)ccc1O (configuration not stated)	13.5
O=C1NC2C(=CC(O)C(O)C2O)c2cc3c(cc21)OCO3 (configuration not stated)	1.8
